Legend:
[1] = test system: TG neurons from TRPV1 KO mice; test: [Ca2+]i levels in cultured TG neurons from TRPV1 KO mice; format: cell-based, mouse
Protocol: (§1) FIGS. 1A-H depict that endogenous TRPV1 ligands are generated upon heat insult of mouse skin. The hypothesis of heat-evoked generation of endogenous TRPV1 ligand(s) was evaluated by harvesting mouse skin and then collecting superfusate samples after 20 min exposure to basal (37° C.=“control” skin) or noxious (48° C.=“heated” skin) temperatures. Aliquots of the two superfusates were applied, at room temperature, to cultured trigeminal ganglia (TG) neurons from wild type (WT) or TRPV1 knock out (TRPV1 KO) mice for measurement of evoked increases in intracellular calcium levels [Ca^2+]i. […] Conversely, there were no changes in [Ca^2+]i after application of supernatants from heated skin to either TRPV1 KO cultures (FIG. 1B; mustard oil served as a positive control) or to WT neurons insensitive to capsaicin (data not shown).
(§2) The pharmacological activity of synthetic 9-HODE and related compounds on sensory neurons was characterized. […] Another major metabolic pathway of linoleic acid leads to formation of 13-HODE and its metabolite, 13-oxoODE. The relative efficacy of these four compounds for evoked [Ca^2+]i levels was evident when tested in cultured neurons from WT mice (FIG. 3G) and in TRPV1-expressing CHO cells (FIG. 3H).
(§3) The epoxy metabolite, 9,10 EpOME (also known as leukotoxin), is highly elevated in burn patients and is implicated in shock in these patients.
(§4) FIG. 12 depicts the effect of lipids extracted from burned human skin samples against cultured trigeminal sensory neurons from control (wild type, “WT”) mice and from TRPV1 knock-out mice. Samples of burned human skin and control (non-burned) human skin from patients undergoing treatment in a hospital burn ward were obtained. The lipids from the skin samples were extracted by incubation with acetonitrile and the samples dried under nitrogen gas. The samples were tested against cultured trigeminal sensory neurons from control (wild type, “WT”) mice and from TRPV1 knock-out mice using real time imaging of calcium accumulation (fura-2 method). Extracts from human control (non burned) skin had no effect on activating neurons from either control (WT) or TRPV1 knockout (TRPV1 KO) mice. […] Thus, similar to the oxidized linoleic acid metabolites, the extracts from burned human skin activate TRPV1 and some other channels.

[2] = test system: WT mice; test: hindpaw intraplantar (ipl) injection, thermal allodynia, WT mice; format: in vivo, mouse
[3] = test system: cultured rat TG neurons; test: CGRP release from cultured rat TG neurons evoked by 9-HODE; format: cell-based
[4] = test system: TG neurons from WT mice; test: [Ca2+]i levels in cultured TG neurons from WT mice; format: cell-based, mouse; settings: for [Ca2+]i response evoked in TG neurons / responding neurons / capsaicin-sensitive neurons: 100 μM
Protocol: as §1, §2, §3, §4

[5] = test system: rats; test: intrathecal application, tactile allodynia in rats; format: in vivo, rat
Text: FIGS. 9A-D depict that spinal injection (intrathecal) of capsaicin or 9-HODE into the spinal cord space results in tactile allodynia. This effect is mediated by activation of TRPV1 since it is blocked by a TRPV1 antagonist (AMG 9810). […] The results were compared with the results obtained with the positive control capsaicin. […] Comparison of the peak effect evoked by both capsaicin and 9-HODE is shown in FIGS. 9C-D. The effects were remarkably similar.

[6] = test system: TRPV1 KO mice; test: hindpaw intraplantar (ipl) injection, thermal allodynia, TRPV1 KO mice; format: in vivo, mouse
[7] = test system: rats; test: thermal nociception in rats after intraplantar hindpaw (ipl) injection; format: in vivo, rat; settings: 100 ug/paw ipl, 15 minute, ipsilateral hindpaw
Protocol: The intraplantar hindpaw (ipl) injection of NDGA, miconazole, and a combination of anti 9-HODE and anti-13-HODE was compared to morphine sulfate, a gold standard analgesic. […] The studies were performed in a separate groups of animals for each condition and by observers blinded to treatment allocation (all compounds at 100 ug/paw and antibodies were each 25 ug/paw) (FIG. 10).

[8] = test system: rat TG neurons; test: patch clamp electrophysiology, heat (48° C.)-evoked inward current (Iheat) in rat TG neurons; format: cell-based; settings: pretreatment, NDGA 30 uM, miconazole 100 uM
Protocol: FIGS. 5A-D depict that interventions reducing production or action of linoleic acid oxidation products results in decreased thermal pain. Whether heat-evoked activation of rat TG neurons is inhibited by interventions directed against linoleic acid metabolites was evaluated. […] Using patch clamp electrophysiology, the local application of a heat step (48° C.) produced a strong inward current (Iheat) in TG neurons. Pretreatment with NDGA produced ˜50% reduction (p<0.05) in Iheat. (FIG. 5B). In a similar patch clamp electrophysiology set up, pretreatment with miconazole (100 uM) produced more than 75% reduction (p<0.001) in Iheat (FIG. 5C). Whether intracellular immunoneutralization against 9-HODE and 13-HODE alters the responsiveness of sensory neurons to noxious heat was evaluated next. A solution containing both anti-9-HODE and anti-13-HODE antibodies (concentrations of 0.03-0.06 ug and 0.006-0.012 ug/patch pipette respectively) was delivered intracellularly via dialysis for 5 min prior to the application of a heat step (48° C.).

[9] = test system: rat TG neurons; test: heat-evoked (48° C.) iCGRP release from rat TG neurons; format: cell-based; settings: NDGA 10 uM, indomethacin 2 uM, I-RTX 200 nM
[10] = test system: rat trigeminal sensory neurons; test: linoleic acid activation of rat trigeminal sensory neurons, intracellular calcium (Fura-2); format: cell-based; settings: pretreatment; for inhibition of the formation of linoleic acid metabolites (neuron-activating compounds): concluded from the neuron activation test
Text: FIG. 14 depicts the effects of pretreatment with either cytochrome P450 inhibitors (NDGA, DPI, CO or ketoconazole, ODYA), nitric oxide synthase inhibitors (L-NAME, L-NNA), lipoxygenase inhibitors (BW-70C, PD, TEDC) or antioxidants (TROLOX, NAC, TEMPOL) versus negative controls (vehicle, argon) on the ability of linoleic acid to activate rat trigeminal sensory neurons as measured by real time levels of intracellular calcium (Fura-2, as indicated by the ratio of 340/380).

[11] = test system: rat TG neurons; test: activation of rat TG neurons by compound(s) released from heated skin, pretreatment with TRPV1 antagonist; format: cell-based; settings: I-RTX 200 nM pretreatment; superfusates from skin exposed to 48° C.
Protocol: To further characterize the TRPV1 specificity of these endogenous heat-generated compound(s), the effect of pretreatment with the TRPV1 antagonist iodo-resiniferatoxin (I-RTX) on the activation of rat TG neurons was evaluated. […] Moreover, application of these compound(s) triggered prompt increases in [Ca]i in CHO cells expressing TRPV1, but not in negative control CHO cells that expressed a GFP construct (FIGS. 1E-F). Next, initial superfusion experiments in isolated mouse skin were expanded by collecting supernatant after exposure to various temperatures and evaluating the release of endogenous TRPV1 compound(s).

[12] = molecular target: T1, TRPV4 (Homo sapiens, UniProt Q9HBA0); test: [Ca2+]i in CHO cells expressing TRPV4; format: cell-based; settings: screening against other heat-sensitive TRP channels
T1 construct: expressed in transfected cells; host or cells: CHO cells
T1 sequence (Q9HBA0 whole entry, species assumed): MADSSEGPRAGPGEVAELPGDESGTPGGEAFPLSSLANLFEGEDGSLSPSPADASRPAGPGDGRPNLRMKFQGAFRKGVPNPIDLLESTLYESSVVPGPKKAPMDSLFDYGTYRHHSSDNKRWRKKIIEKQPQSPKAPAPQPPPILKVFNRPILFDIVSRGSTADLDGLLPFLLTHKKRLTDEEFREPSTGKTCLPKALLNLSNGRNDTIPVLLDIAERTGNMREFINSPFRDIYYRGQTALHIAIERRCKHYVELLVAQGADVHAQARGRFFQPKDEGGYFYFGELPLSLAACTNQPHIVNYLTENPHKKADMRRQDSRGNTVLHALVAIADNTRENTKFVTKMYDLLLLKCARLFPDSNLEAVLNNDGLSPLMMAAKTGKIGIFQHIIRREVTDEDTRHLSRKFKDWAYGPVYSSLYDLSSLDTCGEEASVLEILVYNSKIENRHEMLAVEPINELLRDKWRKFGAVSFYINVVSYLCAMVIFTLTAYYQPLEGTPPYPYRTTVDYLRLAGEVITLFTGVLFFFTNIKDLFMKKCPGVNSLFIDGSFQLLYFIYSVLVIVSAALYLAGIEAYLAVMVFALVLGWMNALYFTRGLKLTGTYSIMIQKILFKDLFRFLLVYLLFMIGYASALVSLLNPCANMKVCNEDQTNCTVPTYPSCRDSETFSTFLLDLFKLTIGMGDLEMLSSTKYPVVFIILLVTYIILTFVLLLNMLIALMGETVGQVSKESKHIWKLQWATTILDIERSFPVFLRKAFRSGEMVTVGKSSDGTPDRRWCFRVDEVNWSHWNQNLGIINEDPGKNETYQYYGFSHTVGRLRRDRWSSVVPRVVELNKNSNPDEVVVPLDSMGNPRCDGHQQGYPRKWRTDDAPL
Text: as §3
FIG. 13 depicts the effect of lipids, extracted from burned human skin samples, and then applied to CHO cells that expressed either TRPV1, TRPV2, TRPV3, TRPV4 or TRPA1, using real time calcium imaging. As shown, the extracts of the burned human skin activated TRPV1, TRPV3, TRPV4 and TRPA1, but not TRPV2.

CCCCC/C=C\C=C\C(O)CCCCCCCC(=O)O (stereo not shown) [9-HODE, 9-hydroxyoctadecadienoic acid]
magnitude of [Ca2+]i accumulation and its time course compared to WT neurons [1]: greatly reduced | responding neurons / tested neurons [1]: 3/66 | tested neurons with a slight response [1]: 4% | thermal allodynia after ipl injection ([2]; blinded observers): significantly greater thermal allodynia | concentration at which effects on CGRP release are evident [3]: 10 nM | EC50 ([3]; read-out: EC50 of increase in CGRP release): ~300 nM | [Ca2+]i response evoked in TG neurons [4]: robust response | responding neurons / capsaicin-sensitive neurons [4]: 75/75 | tactile allodynia evoked by intrathecal application ([5]; 5 ug intrathecal): evoked tactile allodynia that was of similar magnitude and duration to that of capsaicin | thermal allodynia after ipl injection ([6]; blinded observers): not in TRPV1 KO mice

COc1cc(CNC(=O)CCCC/C=C/C(C)C)ccc1O [capsaicin]
duration of tactile allodynia post injection ([5]; 5 ug intrathecal): 1 h | tactile allodynia evoked by intrathecal application ([5]; 5 ug intrathecal): evoked tactile allodynia

CC(Cc1ccc(O)c(O)c1)C(C)Cc1ccc(O)c(O)c1 (stereo not shown) [NDGA, Nordihydroguaiaretic Acid]
thermal antinociception [7]: thermal antinociception far beyond that of the vehicle or morphine injected rats | reduction in Iheat [8]: ~50% | reversal of heat-evoked iCGRP release by pretreatment [9]: partially reversed

Clc1ccc(COC(Cn2ccnc2)c2ccc(Cl)cc2Cl)c(Cl)c1 (stereo not shown) [miconazole]
thermal antinociception [7]: thermal antinociception far beyond that of the vehicle or morphine injected rats | reduction in Iheat [8]: more than 75%

CC(=O)N1CCN(c2ccc(OCC3COC(Cn4ccnc4)(c4ccc(Cl)cc4Cl)O3)cc2)CC1 (stereo not shown) [ketoconazole]
block of the ability of linoleic acid to activate pain neurons ([10]; Fura-2 ratio 340/380): completely blocked | inhibition of the formation of linoleic acid metabolites (neuron-activating compounds) [10]: inhibits the formation of linoleic acid metabolites

COc1ccc2c(c1)c(CC(=O)O)c(C)n2C(=O)c1ccc(Cl)cc1 [indomethacin]
reversal of heat-evoked iCGRP release by pretreatment [9]: not

C=C(C)[C@]12C[C@@H](C)[C@@]34O[C@](Cc5ccccc5)(O[C@@H]1[C@@H]3C=C(COC(=O)Cc1cc(I)c(O)c(OC)c1)C[C@]1(O)C(=O)C(C)=C[C@@H]41)O2 [I-RTX, iodo-resiniferatoxin]
reversal of heat-evoked iCGRP release by pretreatment [9]: partially reversed | block of activation of neurons by compound(s) released from heated skin [11]: completely blocked

CCCCC/C=C\CC1OC1CCCCCCCC(=O)O (stereo not shown) [9,10 EpOME, (12Z)-9,10-epoxyoctadecenoic acid]
responding neurons / tested neurons [1]: 0/58 | thermal allodynia after ipl injection ([2]; 50 μg/ipl): evoked thermal allodynia | [Ca2+]i response evoked in TG neurons [4]: evoked calcium accumulation only in capsaicin-sensitive neurons | responding neurons / capsaicin-sensitive neurons [4]: 58/58 | thermal allodynia after ipl injection ([6]; 50 μg/ipl): absent

CCCCCC=CCC(O)C(O)CCCCCCCC(=O)O (stereo not shown) [9,10-DiHOME, 9(10)-dihydroxy-octadec-12-enoic acid]
TRPV4 agonist activity [12]: TRPV4 agonist

CC(C)(C)c1ccc(/C=C/C(=O)Nc2ccc3c(c2)OCCO3)cc1 [AMG 9810]
reversal of 9-HODE-evoked tactile allodynia ([5]; AMG 9810 50 ug, 9-HODE 5 ug intrathecal): completely reversible | reversal of capsaicin-evoked tactile allodynia ([5]; AMG 9810 50 ug, capsaicin 5 ug intrathecal): completely reversible | effect alone on mechanical withdrawal thresholds ([5]; antagonist alone, intrathecal): Neither the vehicle nor AMG 9810 alone had any effect

C#CCCCCCCCCCCCCCCCC(=O)O [ODYA, 17-Octadecynoic acid]
inhibition of the formation of linoleic acid metabolites (neuron-activating compounds) [10]: does not

CCCCC/C=C\C=C\C(=O)CCCCCCCC(=O)O [9-oxoODE, (10E,12Z)-9-oxooctadeca-10,12-dienoic acid]
[Ca2+]i levels after application ([1]; concentration not given): not in neurons from TRPV1 KO mice | [Ca2+]i levels after application ([4]; concentration not given): triggered increased [Ca^2+]i levels
